Reference: article PMC10518255, “A first-in-class pan-lysyl oxidase inhibitor impairs stromal remodeling and enhances gemcitabine response and survival in pancreatic cancer” (Nature Cancer, 2023)
Several values for one entry are separate records, joined by “and”; a condition that tells them apart may be missing. Equal values may be shown once.

How the values were obtained:
[1] = Rat pharmacokinetics, single dose orally (10 mg/kg) or intravenously (5 mg/kg)
Microsomal stability = type: in vitro ADME; details: microsomes; In vitro (human)
[2] = target: T1, bovine aorta extracted LOX (Bos taurus, UniProt P33072); assay: Substrate competition assay versus putrescine dihydrochloride, amplex red (Extended Data Fig. 3b); type: biochemical
T1 construct: performed in an amplex red assay using bovine aorta extracted LOX; from tissue; host or cells: bovine aorta
T1 sequence (P33072 170-418): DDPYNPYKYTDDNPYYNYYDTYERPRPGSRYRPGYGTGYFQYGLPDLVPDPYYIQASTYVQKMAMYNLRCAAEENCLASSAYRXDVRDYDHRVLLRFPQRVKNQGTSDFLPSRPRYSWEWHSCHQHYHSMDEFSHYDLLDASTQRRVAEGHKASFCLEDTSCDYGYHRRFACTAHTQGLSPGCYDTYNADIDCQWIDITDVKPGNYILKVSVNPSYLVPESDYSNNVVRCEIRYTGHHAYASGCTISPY
Excerpt: Similar to other fluoroallylamine-based amine oxidase inhibitors, the mode of inhibition is assumed to be a two-step mechanism (Fig. 2c), with PXS-5505 reacting with the unique LTQ cofactor found within the active site. The fluoroallylamine facilitates the formation of a covalent, irreversible bond. […] Furthermore, in jump dilution experiments, there is no significant recovery of activity following rapid dilution (LOXL1 (5 ± 5% recovery, n = 4), LOXL2 (7 ± 1.2% recovery, n = 3) and LOXL3 (11 ± 2% recovery, n = 3)).
(§1) Data presented as mean values +/− SD. f. […] Data presented as mean values +/− SD. […] Data presented as mean values +/− SD. […] Data presented as mean values +/− SD. Ordinary one-way ANOVA for multiple comparison test performed. Source data

[3] = test system: human pancreatic cancer CAF remodeled organotypic matrices; assay: Matrix stiffness by unconfined compression testing of organotypic matrices; type: cell-based; details: human pancreatic cancer CAFs, PXS-5505 during remodeling
Protocol: Unconfined compression of 3D organotypic collagen matrices treated with or without PXS-5505 was performed on a TA Instruments Dynamic Hybrid Rheometer (DHR-3, TA Instruments). Remodeled collagen matrices were placed between upper and lower parallel plate geometries. A constant linear compressive rate of 5 µm s^−1 was applied to the samples and axial force (N) and gap (mm) were collected every 0.01 s. Data were processed and a stress–strain curve for each replicate was obtained. Bulk elastic modulus (kPa) was obtained as the gradient of the linear region of the stress–strain curve corrected for cross-sectional area of sample and normalized to control. Data points represent biological replicates. […]
Extended Data Fig. 4 PXS-5505 inhibits collagen cross-linking by PDAC CAFs in vitro resulting in decreased cancer cell invasion. a. […] Chemical structures of lysyl oxidase family catalyzed hydroxyallysine or allysine residues and the subsequent divalent and trivalent bonds that are formed that can be quantified by mass spectrometry. c. […] Relative fold expression of LOXL family members compared to LOX were determined by 2^–∆∆Ct approach. f. […] Comparison of measured area of matrices between control, PXS-5120 and PXS-5505 treatment groups (n = 3) over time. i. […] Representative images of invasion of KPC cancer cells into a contracted organotypic matrix as determined by H&E staining. […]

[4] = Plasma concentration profile after oral PXS-5505 30 mg/kg (Extended Data Fig. 3f); type: in vivo, mice; details: for Plasma concentration: mice, individual replicates
KPC CCs = assay: 2D cell viability assay (MTS); type: cell-based, mouse; details: for 2D cell viability (MTS assay): Cancer cells, replicates
Protocol: (§2) The 2D cell viability assays were performed using KPC CAFs and CCs seeded at (250 CAFs per well) and (500 CCs per well) in a 96-well plate. MTS solution (Promega) was added to the cells at a 1:20 dilution and cells were incubated at 37 °C for 2 h. Cell proliferation rates were measured by detecting the absorbance at 490 nm using a microplate reader. Three biological repeats were performed.
as §1

KPC CAFs = assay: 2D cell viability assay (MTS); type: cell-based, mouse; details: for 2D cell viability (MTS assay): CAFs, replicates
Protocol: as §2, §1

[5] = 2D cell viability assay (MTS); type: cell-based, mouse; details: mouse, replicates
Protocol: as §2, §1

**Q.** For `Cl.Cl.NC/C=C(\F)CS(=O)(=O)c1cccc2cccnc12.O` [PXS-5505, (Z)-3-fluoro-4-(quinolin-8-ylsulfonyl)but-2-en-1-amine dihydrochloride monohydrate], which Plasma concentration ([1]; 5 mg/kg iv, 0.03 hrs) is on record?
**A.** The Plasma concentration was 10.145.

**Q.** And the Plasma concentration ([1]; 5 mg/kg iv, 0.17 hrs)?
**A.** Its Plasma concentration is 4.593.

**Q.** What about the Plasma concentration ([1]; 5 mg/kg iv, 0.5 hrs) of the same molecule?
**A.** The Plasma concentration was 2.135.

**Q.** And the Plasma concentration ([1]; 5 mg/kg iv, 1 hrs)?
**A.** Its Plasma concentration is 0.7139.

**Q.** And the Plasma concentration ([1]; 5 mg/kg iv, 2 hrs)?
**A.** Its Plasma concentration is 0.1589.

**Q.** And the Plasma concentration ([1]; 5 mg/kg iv, 3 hrs)?
**A.** Its Plasma concentration is 0.055.

**Q.** What about the Plasma concentration ([1]; 5 mg/kg iv, 5 hrs) of the same molecule?
**A.** Its Plasma concentration is 0.008393.

**Q.** And the Plasma concentration ([1]; 10 mg/kg oral, 0.25 hrs)?
**A.** Its Plasma concentration is 2.305.

**Q.** And the Plasma concentration ([1]; 10 mg/kg oral, 0.5 hrs)?
**A.** The Plasma concentration was 3.551.

**Q.** What about the Plasma concentration ([1]; 10 mg/kg oral, 1 hrs) of the same molecule?
**A.** The Plasma concentration was 3.399.

**Q.** And the Plasma concentration ([1]; 10 mg/kg oral, 2 hrs)?
**A.** Its Plasma concentration is 0.9.

**Q.** What about the Plasma concentration ([1]; 10 mg/kg oral, 3 hrs) of the same molecule?
**A.** Its Plasma concentration is 0.198.

**Q.** What about the Plasma concentration ([1]; 10 mg/kg oral, 5 hrs) of the same molecule?
**A.** The Plasma concentration was 0.02554.

**Q.** What about the Plasma concentration ([1]; 10 mg/kg oral, 8 hrs) of the same molecule?
**A.** The Plasma concentration was 0.0075.

**Q.** And the AUC(0-t) ([1]; plasma, po, 10 mg/kg)?
**A.** The AUC(0-t) was 1600 ng·h/mL.

**Q.** What about the Cmax ([1]; plasma, po, 10 mg/kg) of the same molecule?
**A.** The Cmax was 1000 ng/mL.

**Q.** What about the Tmax ([1]; plasma, po, 10 mg/kg) of the same molecule?
**A.** Its Tmax is 48 min.

**Q.** And the bioavailability ([1]; plasma, po, 10 mg/kg, Bioavailability (F))?
**A.** The bioavailability was 75%.

**Q.** What about the half-life ([1]; plasma, po, 10 mg/kg, T1/2, rat) of the same molecule?
**A.** The half-life was 42 min.

**Q.** What about the bioavailability ([1]; plasma, po, 10 mg/kg, bioavailability, oral administration, for rodents) of the same molecule?
**A.** Its bioavailability is over 75%.

**Q.** What about the half-life ([1]; plasma, po, 10 mg/kg, half-life, oral administration) of the same molecule?
**A.** The half-life was about 60 min.

**Q.** And the remaining at 1 h (Microsomal stability)?
**A.** The remaining at 1 h was 97%.

**Q.** And the substrate competition [2]?
**A.** The substrate competition was “substrate competition”.

**Q.** What about the “stiffness (bulk modulus) of remodeled organotypic matrices” value [3] of the same molecule?
**A.** Its value is “decrease in stiffness (bulk modulus)”.

**Q.** What about the Plasma concentration ([4]; oral 5 mg/kg, time 0.5 hrs, 5 mg/kg) of the same molecule?
**A.** The Plasma concentration was 424 and 270.3 and 246.9.

**Q.** What about the Plasma concentration ([4]; oral 5 mg/kg, time 1 hrs, 5 mg/kg) of the same molecule?
**A.** The Plasma concentration was 183.1 and 190 and 142.6.

**Q.** And the Plasma concentration ([4]; oral 5 mg/kg, time 2 hrs, 5 mg/kg)?
**A.** Its Plasma concentration is 40.1 and 93 and 39.5.

**Q.** What about the Plasma concentration ([4]; oral 5 mg/kg, time 4 hrs, 5 mg/kg) of the same molecule?
**A.** Its Plasma concentration is 10.2 and 13.8 and 3.1.

**Q.** And the Plasma concentration ([4]; oral 5 mg/kg, time 8 hrs, 5 mg/kg)?
**A.** Its Plasma concentration is 3.2 and 2.1 and 1.3.

**Q.** And the Plasma concentration ([4]; oral 10 mg/kg, time 0.5 hrs, 10 mg/kg)?
**A.** Its Plasma concentration is 1283.4 and 374.2 and 656.3.

**Q.** And the Plasma concentration ([4]; oral 10 mg/kg, time 1 hrs, 10 mg/kg)?
**A.** Its Plasma concentration is 814.4 and 337 and 493.5.

**Q.** What about the Plasma concentration ([4]; oral 10 mg/kg, time 2 hrs, 10 mg/kg) of the same molecule?
**A.** The Plasma concentration was 138.5 and 336.7 and 262.8.

**Q.** And the Plasma concentration ([4]; oral 10 mg/kg, time 4 hrs, 10 mg/kg)?
**A.** The Plasma concentration was 113.3 and 25.7 and 30.1.

**Q.** And the Plasma concentration ([4]; oral 10 mg/kg, time 8 hrs, 10 mg/kg)?
**A.** The Plasma concentration was 14.4 and 5.9 and 4.9.

**Q.** What about the Plasma concentration ([4]; oral 30 mg/kg, time 0.5 hrs, 30 mg/kg) of the same molecule?
**A.** Its Plasma concentration is 3584.3 and 3445.6 and 4112.8.

**Q.** What about the Plasma concentration ([4]; oral 30 mg/kg, time 1 hrs, 30 mg/kg) of the same molecule?
**A.** Its Plasma concentration is 3340.5 and 2725.9 and 2974.4.

**Q.** What about the Plasma concentration ([4]; oral 30 mg/kg, time 2 hrs, 30 mg/kg) of the same molecule?
**A.** Its Plasma concentration is 1379.4 and 1690.4 and 1354.7.

**Q.** And the Plasma concentration ([4]; oral 30 mg/kg, time 4 hrs, 30 mg/kg)?
**A.** The Plasma concentration was 160.9 and 186.3 and 206.9.

**Q.** And the Plasma concentration ([4]; oral 30 mg/kg, time 8 hrs, 30 mg/kg)?
**A.** Its Plasma concentration is 13.1 and 14.5 and 13.6.

**Q.** What about the half-life ([4]; mouse, plasma, single oral dose 30 mg kg−1, read-out: calculated half-life (plasma) (converted)) of the same molecule?
**A.** Its half-life is 60 min.

**Q.** What about the “2D cell viability (MTS assay)” value (KPC CCs; PXS-5505 0.3 (unit not given)) of the same molecule?
**A.** Its value is 100 and 109.75.

**Q.** What about the “2D cell viability (MTS assay)” value (KPC CCs; PXS-5505 3 (unit not given)) of the same molecule?
**A.** Its value is 110.09 and 116.21.

**Q.** And the “2D cell viability (MTS assay)” value (KPC CCs; PXS-5505 30 (unit not given))?
**A.** Its value is 104.54 and 100.45.

**Q.** What about the “2D cell viability (MTS assay)” value (KPC CCs; PXS-5505 100 (unit not given)) of the same molecule?
**A.** The value was 94.9 and 85.15.

**Q.** And the “2D cell viability (MTS assay)” value (KPC CCs; PXS-5505 300 (unit not given))?
**A.** Its value is 94.9 and 96.71.

**Q.** And the “effect on proliferation, 2D” value (KPC CCs; KPC CCs, up to 300 µM)?
**A.** Its value is “nor did it show any effect on proliferation”.

**Q.** And the “2D cell viability (MTS assay)” value (KPC CAFs; PXS-5505 0.3 (unit not given))?
**A.** Its value is 89.24 and 85.85.

**Q.** What about the “2D cell viability (MTS assay)” value (KPC CAFs; PXS-5505 3 (unit not given)) of the same molecule?
**A.** Its value is 104.51 and 107.51.

**Q.** What about the “2D cell viability (MTS assay)” value (KPC CAFs; PXS-5505 30 (unit not given)) of the same molecule?
**A.** Its value is 111.18 and 108.48.

**Q.** And the “2D cell viability (MTS assay)” value (KPC CAFs; PXS-5505 100 (unit not given))?
**A.** Its value is 94.55 and 103.25.

**Q.** What about the “2D cell viability (MTS assay)” value (KPC CAFs; PXS-5505 300 (unit not given)) of the same molecule?
**A.** The value was 90.49 and 84.11.

**Q.** And the “effect on proliferation, 2D” value (KPC CAFs; KPC CAFs, up to 300 µM)?
**A.** Its value is “nor did it show any effect on proliferation”.

**Q.** And the viability ([5]; KPC CAFs (2D culture), CAFs, PXS-5505 0.3 (unit inferred))?
**A.** Its viability is 100%.

**Q.** And the viability ([5]; KPC CAFs (2D culture), CAFs, PXS-5505 3 (unit inferred))?
**A.** The viability was 94.8%.

**Q.** And the viability ([5]; KPC CAFs (2D culture), CAFs, PXS-5505 30 (unit inferred))?
**A.** The viability was 101%.

**Q.** And the viability ([5]; KPC CAFs (2D culture), CAFs, PXS-5505 100 (unit inferred))?
**A.** The viability was 89.7%.

**Q.** What about the viability ([5]; KPC CAFs (2D culture), CAFs, PXS-5505 300 (unit inferred)) of the same molecule?
**A.** The viability was 92.6%.

**Q.** What about the viability ([5]; KPC cancer cells (CCs, 2D culture), Cancer cells, PXS-5505 0.3 (unit inferred)) of the same molecule?
**A.** The viability was 100%.

**Q.** What about the viability ([5]; KPC cancer cells (CCs, 2D culture), Cancer cells, PXS-5505 3 (unit inferred)) of the same molecule?
**A.** Its viability is 109%.

**Q.** What about the viability ([5]; KPC cancer cells (CCs, 2D culture), Cancer cells, PXS-5505 30 (unit inferred)) of the same molecule?
**A.** Its viability is 110%.

**Q.** What about the viability ([5]; KPC cancer cells (CCs, 2D culture), Cancer cells, PXS-5505 100 (unit inferred)) of the same molecule?
**A.** The viability was 102%.

**Q.** And the viability ([5]; KPC cancer cells (CCs, 2D culture), Cancer cells, PXS-5505 300 (unit inferred))?
**A.** The viability was 98.8%.
